Data taken from patent publication US20240335420A1, “N-ACYLHYDRAZONE COMPOUNDS CAPABLE OF INHIBITING NAV 1.7 AND/OR NAV 1.8, PROCESSES FOR THE PREPARATION THEREOF, COMPOSITIONS, USES, METHODS FOR TREATMENT USING SAME AND KITS” (EUROFARMA LABORATÓRIOS S.A., priority 2021, published 2024).

Legend:
[1] = target: human sodium channels Nav 1.8 (Homo sapiens (Human), UniProt Q9Y5Y9); assay: Automated whole-cell voltage-clamp (ScreenPatch 384P), Nav 1.8 sodium current, Protocol 1; type: cell-based; conditions: CHO cells expressing human Nav 1.8; for IC50: Protocol 1 (holding −90 mV, 0.1 Hz), room temperature, read-out: Nav1.8 IC50; for inhibition at 10 µM: Protocol 1, read-out: Nav1.8 percent of inhibition (IC50 value not available)
Description: (§1) Biological assays were performed on Chinese hamster ovary (CHO) cells expressing the human sodium channels Nav 1.8 and Nav 1.7 stably.
(§2) The experimental voltage-clamp protocol using the whole cell configuration was established on the automated ScreenPatch® 384P platform (SP384PE, Nanion Technologies, Livingston, NJ) and recording of the results was performed with a Nanion 384-well Patch Clamp chip (NPC) (Nanion Technologies, Livingston, NJ).
(§3) Compounds of Formula (I), were diluted in eight concentrations in the extracellular solution composed of physiological saline, buffered with HEPES (mM): NaCl, 137; KCl, 4; CaCl2, 3.8; MgCl2, 1; HEPES, 10; Glucose, 10; pH 7.4. The […], 50; CsF, 90; MgCl2, 5; EGTA, 5; HEPES, 10; pH 7.2. The duration of exposure of each compound with the cells expressing Nav 1.7 or Nav 1.8 was at least five minutes and the assays were performed at room temperature.
(§4) The measurements of the sodium currents of Nav 1.8 and Nav 1.7 were obtained using the voltage protocols described below: • Protocol 1: A holding voltage of −90 mV was established followed by a voltage phase of 200 ms to −120 mV, followed by a voltage step of 10 mV for 1 second for Nav 1.8 or 0 mV for Nav 1.7, followed by a step of −100 mV for 20 ms, followed by a step of 20 ms for 10 mV for Nav 1.8 or 0 mV for Nav 1.7 (TP1A) before returning to the holding voltage of −90 mV. • Protocol 2: A holding voltage of −100 mV was established followed by an inactivation voltage step at −40 mV for 8 seconds, followed by a −100 mV step for […], followed by a 20 ms step for 10 mV for Nav 1.8 or 0 mV for Nav 1.7 (TP1A) before returning to the holding voltage of −100 mV.
(§5) Protocols were repeated at a frequency of 0.1 Hz (Protocol 1) or 0.05 Hz (Protocol 2) and current amplitude was quantified over the TP1A phase log. The variation in the peak amplitude of the current was evaluated according to the Formula described below, after exposure of the cells expressing the channels, at each concentration of the different compounds:
(§6) [formula] • where |TP1A, basal, and |TP1A, molecule represent the entry peaks of sodium currents into TP1A prior to exposure to the compound and in the presence of the compound, respectively.
(§7) The decrease in peak current amplitude, after exposure of the cells to the compounds, was used to calculate the percent relative blocking of the channels relative to the positive control according to the Formula below:
(§8) [formula] • where % V and % CP represent the averages of the values of current inhibition with a vehicle (DMSO) and positive controls, respectively. The sodium currents of the positive control were considered as 100%.
(§9) [formula] • where [Test] represents the concentration of the evaluated molecule, IC50 is the concentration of the compound that generates half of the maximum inhibition, N is the Hill's coefficient and % Block′ is the percentage of the sodium channel current (Nav 1.8 and Nav 1.7) inhibited at each concentration of the evaluated molecule. Data were obtained by non-linear least squares regression with XLfit for Excel (Microsoft, Redmond, WA).
(§10) Compounds were tested in at least one assay to obtain the IC50 value.

[2] = target: human sodium channels Nav 1.7 (Homo sapiens (Human), UniProt Q15858); assay: Automated whole-cell voltage-clamp (ScreenPatch 384P), Nav 1.7 sodium current, Protocol 1; type: cell-based; conditions: CHO cells expressing human Nav 1.7; for IC50: Protocol 1 (holding −90 mV, 0.1 Hz), room temperature, read-out: Nav1.7 IC50; for inhibition at 10 µM: Protocol 1, read-out: Nav1.7 percent of inhibition (IC50 value not available)
Description: as §1, §2, §3, §4, §5, §6, §7, §8, §9, §10

human sodium channels Nav 1.7, sequence (Q15858 whole entry): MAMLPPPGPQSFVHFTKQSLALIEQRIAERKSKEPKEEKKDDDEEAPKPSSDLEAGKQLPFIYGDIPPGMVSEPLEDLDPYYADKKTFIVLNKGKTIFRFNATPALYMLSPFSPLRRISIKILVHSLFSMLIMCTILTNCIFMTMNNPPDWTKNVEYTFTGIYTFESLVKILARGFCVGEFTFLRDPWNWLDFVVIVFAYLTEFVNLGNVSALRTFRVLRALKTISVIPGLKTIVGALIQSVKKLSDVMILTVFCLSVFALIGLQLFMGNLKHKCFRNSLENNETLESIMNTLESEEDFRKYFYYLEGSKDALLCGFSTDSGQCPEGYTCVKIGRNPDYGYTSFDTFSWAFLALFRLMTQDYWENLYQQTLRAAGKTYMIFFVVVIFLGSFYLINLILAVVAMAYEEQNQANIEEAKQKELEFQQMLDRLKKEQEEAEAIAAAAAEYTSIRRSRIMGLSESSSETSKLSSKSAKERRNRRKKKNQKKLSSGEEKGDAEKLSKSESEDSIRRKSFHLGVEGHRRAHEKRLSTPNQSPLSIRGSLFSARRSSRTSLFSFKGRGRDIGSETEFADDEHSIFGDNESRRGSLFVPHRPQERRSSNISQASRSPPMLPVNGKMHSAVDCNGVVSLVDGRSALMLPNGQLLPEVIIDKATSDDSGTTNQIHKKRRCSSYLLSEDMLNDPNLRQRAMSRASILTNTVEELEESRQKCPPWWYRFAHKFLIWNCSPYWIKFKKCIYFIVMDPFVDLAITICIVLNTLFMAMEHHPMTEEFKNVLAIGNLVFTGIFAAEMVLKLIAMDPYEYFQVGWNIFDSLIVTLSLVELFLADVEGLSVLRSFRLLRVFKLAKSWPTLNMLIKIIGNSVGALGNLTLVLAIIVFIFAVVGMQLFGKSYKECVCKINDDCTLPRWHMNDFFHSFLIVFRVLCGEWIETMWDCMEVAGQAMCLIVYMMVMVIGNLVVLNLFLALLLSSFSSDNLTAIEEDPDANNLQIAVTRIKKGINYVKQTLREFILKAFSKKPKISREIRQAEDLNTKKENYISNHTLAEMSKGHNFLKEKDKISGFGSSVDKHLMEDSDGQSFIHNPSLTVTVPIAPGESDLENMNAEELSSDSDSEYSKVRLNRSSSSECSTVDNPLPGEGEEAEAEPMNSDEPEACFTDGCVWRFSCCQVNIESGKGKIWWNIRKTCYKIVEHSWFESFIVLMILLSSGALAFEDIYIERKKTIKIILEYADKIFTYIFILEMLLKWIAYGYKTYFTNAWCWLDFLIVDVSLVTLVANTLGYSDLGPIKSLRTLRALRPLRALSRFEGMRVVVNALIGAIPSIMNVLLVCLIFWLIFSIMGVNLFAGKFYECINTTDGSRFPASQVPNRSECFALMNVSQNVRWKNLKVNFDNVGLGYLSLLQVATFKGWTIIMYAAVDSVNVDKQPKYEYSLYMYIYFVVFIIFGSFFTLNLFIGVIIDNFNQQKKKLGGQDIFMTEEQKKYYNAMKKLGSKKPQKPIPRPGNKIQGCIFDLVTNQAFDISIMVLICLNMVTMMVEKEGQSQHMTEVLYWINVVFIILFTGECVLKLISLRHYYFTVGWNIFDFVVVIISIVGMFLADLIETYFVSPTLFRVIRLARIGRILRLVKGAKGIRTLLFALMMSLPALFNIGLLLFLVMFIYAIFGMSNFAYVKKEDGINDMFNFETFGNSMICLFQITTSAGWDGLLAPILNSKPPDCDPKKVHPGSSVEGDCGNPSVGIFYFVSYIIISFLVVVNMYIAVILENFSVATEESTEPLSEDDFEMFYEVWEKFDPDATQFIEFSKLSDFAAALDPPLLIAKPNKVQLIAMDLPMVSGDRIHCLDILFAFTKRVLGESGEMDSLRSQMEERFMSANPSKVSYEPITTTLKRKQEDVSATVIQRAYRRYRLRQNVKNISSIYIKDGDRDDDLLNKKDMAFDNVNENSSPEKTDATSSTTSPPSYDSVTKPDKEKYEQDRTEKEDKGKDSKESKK
human sodium channels Nav 1.8, sequence (Q9Y5Y9 whole entry): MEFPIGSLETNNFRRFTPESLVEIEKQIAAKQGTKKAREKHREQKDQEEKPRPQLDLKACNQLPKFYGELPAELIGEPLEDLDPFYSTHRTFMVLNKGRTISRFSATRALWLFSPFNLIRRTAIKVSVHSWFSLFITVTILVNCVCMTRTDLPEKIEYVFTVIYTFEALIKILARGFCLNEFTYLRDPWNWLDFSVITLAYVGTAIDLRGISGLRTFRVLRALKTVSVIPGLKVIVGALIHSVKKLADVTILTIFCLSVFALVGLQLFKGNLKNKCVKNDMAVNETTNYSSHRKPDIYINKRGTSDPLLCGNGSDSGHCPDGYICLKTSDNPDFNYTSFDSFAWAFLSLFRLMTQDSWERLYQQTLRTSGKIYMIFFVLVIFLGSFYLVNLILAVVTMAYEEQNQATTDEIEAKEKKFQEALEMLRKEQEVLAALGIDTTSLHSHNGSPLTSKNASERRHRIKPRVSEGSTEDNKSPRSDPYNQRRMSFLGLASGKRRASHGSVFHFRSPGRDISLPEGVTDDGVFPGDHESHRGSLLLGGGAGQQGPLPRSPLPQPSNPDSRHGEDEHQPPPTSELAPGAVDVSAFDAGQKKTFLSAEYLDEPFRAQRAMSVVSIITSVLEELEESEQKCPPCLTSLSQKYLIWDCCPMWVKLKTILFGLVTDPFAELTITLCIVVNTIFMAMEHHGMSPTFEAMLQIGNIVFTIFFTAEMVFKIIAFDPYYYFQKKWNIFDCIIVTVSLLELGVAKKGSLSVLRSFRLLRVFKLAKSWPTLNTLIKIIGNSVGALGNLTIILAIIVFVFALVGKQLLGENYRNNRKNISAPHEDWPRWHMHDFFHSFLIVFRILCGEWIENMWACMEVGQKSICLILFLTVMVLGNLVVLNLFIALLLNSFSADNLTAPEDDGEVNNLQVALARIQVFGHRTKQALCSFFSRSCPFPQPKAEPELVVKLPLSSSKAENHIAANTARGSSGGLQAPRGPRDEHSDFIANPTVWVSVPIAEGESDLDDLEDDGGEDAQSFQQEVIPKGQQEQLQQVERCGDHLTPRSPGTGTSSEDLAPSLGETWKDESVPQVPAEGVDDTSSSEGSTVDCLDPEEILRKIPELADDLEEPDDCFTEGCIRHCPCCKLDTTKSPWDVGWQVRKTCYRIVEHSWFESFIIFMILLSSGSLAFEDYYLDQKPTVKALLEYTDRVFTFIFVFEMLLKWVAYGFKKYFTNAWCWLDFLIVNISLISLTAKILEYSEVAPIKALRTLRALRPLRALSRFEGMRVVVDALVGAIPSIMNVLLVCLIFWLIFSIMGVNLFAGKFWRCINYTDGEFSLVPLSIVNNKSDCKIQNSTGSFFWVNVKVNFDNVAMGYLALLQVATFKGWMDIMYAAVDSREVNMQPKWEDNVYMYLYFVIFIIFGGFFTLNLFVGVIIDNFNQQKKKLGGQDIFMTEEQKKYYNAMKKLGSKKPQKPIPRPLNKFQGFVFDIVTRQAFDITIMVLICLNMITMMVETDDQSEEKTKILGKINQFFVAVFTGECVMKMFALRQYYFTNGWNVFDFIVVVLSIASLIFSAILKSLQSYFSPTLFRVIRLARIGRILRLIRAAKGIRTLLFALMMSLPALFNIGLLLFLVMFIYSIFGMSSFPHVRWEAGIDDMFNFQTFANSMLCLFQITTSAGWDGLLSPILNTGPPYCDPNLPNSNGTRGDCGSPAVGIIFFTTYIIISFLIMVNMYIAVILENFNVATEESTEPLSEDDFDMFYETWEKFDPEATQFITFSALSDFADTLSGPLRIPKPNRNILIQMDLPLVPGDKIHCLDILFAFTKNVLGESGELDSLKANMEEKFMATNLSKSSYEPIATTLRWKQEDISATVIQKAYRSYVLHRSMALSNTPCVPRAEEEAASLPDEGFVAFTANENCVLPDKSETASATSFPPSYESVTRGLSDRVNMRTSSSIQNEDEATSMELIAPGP

In the case of `COc1cc(/C=N/NC(=O)c2ccc(-c3ccc(Cl)cc3)o2)cc(OC)c1` [Compound 2, (E)-5-(4-chlorophenyl)-N′-(3,5-dimethoxybenzylidene) furan-2-carbohydrazide], the IC50 [1] is reported as > 30 µM and the IC50 [2] is reported as > 30 µM.

With `CCOc1ccc(-c2ccc(C(=O)N/N=C/c3cccs3)o2)cc1` [Compound 3, (E)-5-(4-ethoxyphenyl)-N′-(thiophen-2-ylmethylene) furan-2-carbohydrazide] the IC50 [1] was > 30 µM and the IC50 [2] was > 30 µM.

With `CCOc1ccc(-c2ccc(C(=O)N/N=C/c3cccnc3N3CCOCC3)o2)cc1` [Compound 4, (E)-5-(4-ethoxyphenyl)-N′-((2-morpholinopyridin-3-yl)methylene) furan-2-carbohydrazide] the inhibition at 10 µM [1] was < 10% and the inhibition at 10 µM [2] was < 10%.

With `CCOc1ccc(-c2ccc(C(=O)N/N=C/c3cc(CN(C)C)cs3)o2)cc1` [Compound 5, (E)-N′-((4-((dimethylamino)methyl)thiophen-2-yl)methylene)-5-(4-ethoxyphenyl) furan-2-carbohydrazide] the inhibition at 10 µM [1] was < 10% and the inhibition at 10 µM [2] was < 10%.

With `CCOc1ccc(-c2ccc(C(=O)N/N=C/c3cccnc3)o2)cc1` [Compound 6, (E)-5-(4-ethoxyphenyl)-N′-(pyridin-3-ylmethylene) furan-2-carbohydrazide] the inhibition at 10 µM [1] was < 10% and the inhibition at 10 µM [2] was < 10%.

In the case of `CC(C)Oc1ccc(-c2ccc(C(=O)N/N=C/c3cccs3)o2)cc1` [Compound 7, (E)-5-(4-isopropoxyphenyl)-N′-(thiophen-2-ylmethylene) furan-2-carbohydrazide], the IC50 [1] is reported as > 6.27 µM and the IC50 [2] is reported as > 16.7 µM.

For `CC(C)Oc1ccc(-c2ccc(C(=O)N/N=C/c3cc(CN(C)C)cs3)o2)cc1` [Compound 8, (E)-N′-((4-((dimethylamino)methyl)thiophen-2-yl)methylene)-5-(4-isopropoxyphenyl) furan-2-carbohydrazide], the inhibition at 10 µM [1] was < 10% and the inhibition at 10 µM [2] was < 10%.

For `O=C(N/N=C/c1cccs1)c1ccc(-c2ccc(OCCN3CCOCC3)cc2)o1` [Compound 9, (E)-5-(4-(2-morpholinoethoxy)phenyl)-N′-(thiophen-2-ylmethylene) furan-2-carbohydrazide], the inhibition at 10 µM [1] was < 10% and the inhibition at 10 µM [2] was < 10%.

`O=C(N/N=C/c1cccs1)c1cccc(-c2ccc(Cl)cc2)n1` [Compound 11, (E)-6-(4-chlorophenyl)-N′-(thiophen-2-ylmethylene) picolinohydrazide] gave an IC50 [1] of 8.58 µM and an IC50 [2] of 12 µM.

With `CCOc1ccc(-c2cccc(C(=O)N/N=C/c3cccs3)n2)cc1` [Compound 12, (E)-6-(4-ethoxyphenyl)-N′-(thiophen-2-ylmethylene) picolinohydrazide] the IC50 [1] was 3.21 µM and the IC50 [2] was 1.89 µM.

`CC(C)Oc1ccc(-c2cccc(C(=O)N/N=C/c3cccs3)n2)cc1` [Compound 13, (E)-6-(4-isopropoxyphenyl)-N′-(thiophen-2-ylmethylene) picolinohydrazide] was tested, and the inhibition at 10 µM [1] was < 10% and the inhibition at 10 µM [2] was < 10%.

In the case of `COc1cc(/C=N/NC(=O)c2cncc(-c3ccc(Cl)cc3)c2)cc(OC)c1` [Compound 16, (E)-5-(4-chlorophenyl)-N′-(3,5-dimethoxybenzylidene) nicotinohydrazide], the IC50 [1] is reported as 4.25 µM and the IC50 [2] is reported as 4.12 µM.

For `COc1cc(/C=N/NC(=O)c2cncc(-c3ccc(OC(F)(F)F)cc3)c2)cc(OC)c1` [Compound 17, (E)-N′-(3,5-dimethoxybenzylidene)-5-(4-(trifluoromethoxy)phenyl) nicotinohydrazide], the IC50 [1] was 6.83 µM and the IC50 [2] was 7.09 µM.

Work on `CCOc1ccc(-c2cncc(C(=O)N/N=C/c3cc(OC)cc(OC)c3)c2)cc1` [Compound 18, (E)-N′-(3,5-dimethoxybenzylidene)-5-(4-ethoxyphenyl) nicotinohydrazide] yielded an IC50 [1] of 6.83 µM and an IC50 [2] of 7.09 µM.

`COc1cc(/C=N/NC(=O)c2cncc(-c3ccc(OC(C)C)cc3)c2)cc(OC)c1` [Compound 19, (E)-N′-(3,5-dimethoxybenzylidene)-5-(4-isopropoxyphenyl) nicotinohydrazide] gave an IC50 [1] of 5.9 µM and an IC50 [2] of 5.72 µM.

For `COc1cc(/C=N/NC(=O)c2ccnc(-c3ccc(Cl)cc3)c2)cc(OC)c1` [Compound 20, (E)-2-(4-chlorophenyl)-N′-(3,5-dimethoxybenzylidene) isonicotinohydrazide], the inhibition at 10 µM [1] was < 10% and the inhibition at 10 µM [2] was < 10%.

For `COc1cc(/C=N/NC(=O)c2ccnc(-c3ccc(OC(F)(F)F)cc3)c2)cc(OC)c1` [Compound 21, (E)-N′-(3,5-dimethoxybenzylidene)-2-(4-(trifluoromethoxy)phenyl) isonicotinohydrazide], the inhibition at 10 µM [1] was < 10% and the inhibition at 10 µM [2] was < 10%.

`CCOc1ccc(-c2cc(C(=O)N/N=C/c3cc(OC)cc(OC)c3)ccn2)cc1` [Compound 22, (E)-N′-(3,5-dimethoxybenzylidene)-2-(4-ethoxyphenyl) isonicotinohydrazide] was tested, and the IC50 [1] was > 10 µM and the IC50 [2] was > 10 µM.

For `COc1cc(/C=N/NC(=O)c2ccnc(-c3ccc(OC(C)C)cc3)c2)cc(OC)c1` [Compound 23, (E)-N′-(3,5-dimethoxybenzylidene)-2-(4-isopropoxyphenyl) isonicotinohydrazide], the IC50 [1] was > 10 µM and the IC50 [2] was > 10 µM.

`COc1cc(/C=N/NC(=O)c2cccc(-c3ccc(OC(C)C)cc3)n2)cc(OC)c1` [Compound 24, (E)-N′-(3,5-dimethoxybenzylidene)-6-(4-isopropoxyphenyl) picolinohydrazide] gave an IC50 [1] of 5.9 µM and an IC50 [2] of 5.72 µM.

For `COc1ccc(-c2cncc(C(=O)N/N=C/c3cc(OC)cc(OC)c3)c2)cc1` [Compound 25, (E)-N′-(3,5-dimethoxybenzylidene)-5-(4-methoxyphenyl) nicotinohydrazide], the IC50 [1] was > 10 µM and the IC50 [2] was > 10 µM.

For `CCCOc1ccc(-c2cncc(C(=O)N/N=C/c3cc(OC)cc(OC)c3)c2)cc1` [Compound 26, (E)-N′-(3,5-dimethoxybenzylidene)-5-(4-propoxyphenyl) nicotinohydrazide], the IC50 [1] was > 10 µM and the IC50 [2] was 3.5 µM.

In the case of `CCCCOc1ccc(-c2cncc(C(=O)N/N=C/c3cc(OC)cc(OC)c3)c2)cc1` [Compound 27, (E)-5-(4-butoxyphenyl)-N′-(3,5-dimethoxybenzylidene) nicotinohydrazide], the IC50 [1] is reported as > 10 µM and the IC50 [2] is reported as > 10 µM.

With `COc1cc(/C=N/NC(=O)c2cncc(-c3ccc(OC4CCCC4)cc3)c2)cc(OC)c1` [Compound 28, (E)-5-(4-(cyclopentyloxy)phenyl)-N′-(3,5-dimethoxybenzylidene) nicotinohydrazide] the IC50 [1] was > 10 µM and the IC50 [2] was > 10 µM.

For `COc1ccc(-c2cc(C(=O)N/N=C/c3cc(OC)cc(OC)c3)ccn2)cc1` [Compound 29, (E)-N′-(3,5-dimethoxybenzylidene)-2-(4-methoxyphenyl) isonicotinohydrazide], the IC50 [1] was > 10 µM and the IC50 [2] was > 10 µM.

With `CCCOc1ccc(-c2cc(C(=O)N/N=C/c3cc(OC)cc(OC)c3)ccn2)cc1` [Compound 30, (E)-N′-(3,5-dimethoxybenzylidene)-2-(4-propoxyphenyl) isonicotinohydrazide] the IC50 [1] was > 10 µM and the IC50 [2] was > 10 µM.

With `CCOc1ccc(-c2cccc(C(=O)N/N=C/c3ccccc3F)n2)cc1` [Compound 32, (E)-6-(4-ethoxyphenyl)-N′-(2-fluorobenzylidene) picolinohydrazide] the IC50 [1] was 1.36 µM and the IC50 [2] was 1.04 µM.

`CCOc1ccc(-c2cccc(C(=O)N/N=C/c3ccccc3Cl)n2)cc1` [Compound 33, (E)-N′-(2-chlorobenzylidene)-6-(4-ethoxyphenyl) picolinohydrazide] was tested, and the IC50 [1] was > 10 µM and the IC50 [2] was > 10 µM.
